Test results published in US7378079B2, “Agents for imaging and diagnostic methods using them” (NST Neurosurvival Technologies Ltd., priority 2002, dated 2008).
“Also recorded” adds a separate entry of the source.

Test system: B16 melanoma
Assay: Imaging of tumor cell death in B16 melanoma in vivo, fluorescent microscopy
Design: species or system c57/black mice
Details: BiCNU 35 mg/Kg; compound i.v. 1-3 mg/animal after 24 h; tumors removed 2 h later
Procedure: Mice bearing B16-melanoma were treated with chemotherapy (BiCNU 35 mg/Kg, one dose), and then injected intravenously with NST920B. Animals were sacrificed two hours later, and the tumor was removed and subjected to fluorescent histopathological assessment, to identify binding of NST920B. Shown is fluorescent microscopic image of a section of the tumor.
Melanoma tumors were induced in c57/black mice by subcutaneous injection of B16-F10 cell line (ATCC CRL-6475). The cell line was maintained in culture in Dulbecco's modified Eagle's medium (DMEM), supplemented with 4 mM of L-glutamine; 100 units/ml of penicillin; 100 μg/ml of streptomycin; 12.5 units/ml of nystatin and 10% of fetal calf serum (FCS). For tumor induction, 10^5 cells in a volume of 100 μl were injected […] to 8 week-old male mice. 15 days later, when tumor diameter reached 5-6 mm, the mice were treated with chemotherapy (BiCNU, 1,3-bis(2-chloroethyl)-1-nitrosourea, at a single dose of 35 mg/Kg). Twenty-four hours after chemotherapy, the mice were injected intravenously with the compounds of the invention NST920B, NST930 and Re-NST904 (1-3 mg/animal). Two hours later, tumors were removed, frozen in liquid nitrogen, and subjected to cryosection. Evaluation of fluorescent signal was performed using fluorescent microscope.

## CN(C)c1cccc2c(S(=O)(=O)N(CCOCCN(CC(=O)O)S(=O)(=O)c3cccc4c(N(C)C)cccc34)CC(=O)O)cccc12 [NST920B]
  uptake by viable, non-apoptotic tumor cells, B16 melanoma: did not manifest such uptake
  uptake into apoptotic tumor cells, B16 melanoma: Uptake of NST920B into apoptotic cells is demonstrated; also recorded: selective uptake
